{
  "source": "paper PMC6333442",
  "about": "“Conserved allosteric pathways for activation of TRPV3 revealed through engineering vanilloid-sensitivity” (eLife, 2019)",
  "key": {"WT mouse TRPV3": {"target": "T1, WT mouse TRPV3 (Mus musculus, UniProt Q8K424)", "T1 construct": "expressed in transfected cells; host or cells: Xenopus laevis oocytes (cRNA injection, pGEM-HE vector)", "T1 sequence (Q8K424 1-791)": "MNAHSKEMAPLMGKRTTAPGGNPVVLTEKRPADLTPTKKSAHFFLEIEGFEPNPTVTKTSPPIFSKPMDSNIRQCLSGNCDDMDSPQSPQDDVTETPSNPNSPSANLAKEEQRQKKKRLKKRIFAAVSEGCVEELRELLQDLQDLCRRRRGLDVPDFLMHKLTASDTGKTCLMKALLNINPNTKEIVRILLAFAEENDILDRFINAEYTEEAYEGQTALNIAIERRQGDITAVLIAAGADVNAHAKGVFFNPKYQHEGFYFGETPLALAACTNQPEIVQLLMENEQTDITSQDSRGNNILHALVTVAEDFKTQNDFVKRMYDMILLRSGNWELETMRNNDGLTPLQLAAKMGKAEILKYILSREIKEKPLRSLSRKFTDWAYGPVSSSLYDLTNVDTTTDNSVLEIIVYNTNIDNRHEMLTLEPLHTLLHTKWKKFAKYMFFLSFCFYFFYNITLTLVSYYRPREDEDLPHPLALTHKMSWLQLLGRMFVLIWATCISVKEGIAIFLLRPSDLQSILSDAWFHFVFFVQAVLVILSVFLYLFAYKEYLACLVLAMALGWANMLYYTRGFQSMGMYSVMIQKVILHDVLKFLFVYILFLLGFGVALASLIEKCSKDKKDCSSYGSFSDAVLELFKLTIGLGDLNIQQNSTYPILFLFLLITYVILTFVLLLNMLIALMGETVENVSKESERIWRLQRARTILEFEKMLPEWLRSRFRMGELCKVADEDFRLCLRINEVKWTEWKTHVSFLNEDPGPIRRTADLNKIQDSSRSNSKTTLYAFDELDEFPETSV", "assay_type": "cell-based", "description": "(§1) All channel constructs were expressed in Xenopus laevis oocytes and studied using the two-electrode voltage clamp technique (TEVC) following 1–4 days of incubation after cRNA injection. The animal care and experimental procedures were performed in accordance with the Guide for the Care and Use of Laboratory Animals and were approved by the Animal Care and Use Committee of the National Institute of Neurological Disorders and Stroke (Animal protocol number 1253–17). Oocytes were removed surgically and incubated with agitation for 1 hr in a solution containing (in mM) 82.5 NaCl, 2.5 KCl, 1 MgCl2, 5 HEPES, pH 7.6 (with NaOH), and collagenase (2 mg/ml; Worthington Biochemical, Lakewood, NJ). Defolliculated oocytes were injected with cRNA for each of the constructs and incubated at 17°C in a solution containing (in mM) 96 NaCl, 2 KCl, 1 MgCl2, 1.8 CaCl2, 5 HEPES, pH 7.6 (with NaOH), and gentamicin (50 μg/ml, GIBCO-BRL, Gaithersburg, MD). Oocyte membrane voltage was controlled using an OC-725C oocyte clamp (Warner Instruments, Hamden, CT). Data were filtered at 1–3 kHz and digitized at 20 kHz using pClamp software (Molecular Devices, Sunnyvale, CA) and a Digidata 1440A digitizer (Axon Instruments). Microelectrode resistances were 0.1–1 MΩ when filled with 3 M KCl. For recording TRP channel currents, the external recording solution contained (in mM) 100 KCl, 10 HEPES, pH 7.6 (with KOH). Experiments were performed at room temperature (~22°C), except as indicated otherwise. […] Current time courses were obtained by stepping membrane voltage every 2 s from a holding potential of 0 mV to either −60 or +60 mV for 100 ms, and plotting the mean steady-state current at the end of each voltage step as a function of total recording time. I-V relations were obtained similarly, but voltage was stepped every 2 s to a different value, in 10 mV increments and starting at −60 mV.\n(§2) For temperature-activation experiments, calcium-activated chloride currents were minimized by using calcium-free solution containing 30 µM Caccinh-A01 and recording at negative membrane voltages. Heat stimuli were achieved by passing the external recording solution through glass capillary spirals immersed in a water bath maintained at about 70°C, and recordings were performed during constant perfusion with temperature measured using a thermistor (TA-29, Warner Instruments) located close to the cell. The thermistor was connected to the digitizer via a temperature controller (TC-324B, Warner Instruments) ([Zhang et al., 2018]). Oocytes injected with the various constructs were only studied if un-injected oocytes from the same batch contained a low density of endogenous temperature-sensitive currents at negative membrane voltages. For delivering cold stimuli, the external solution was passed through glass capillary spirals that were immersed in an ice bath. The mean I vs T relations were calculated by automatically binning each of the recordings in temperature intervals of 2°C, and averaging a single data point within each interval per cell. All data analysis was carried out using Igor Pro 6.3 (Wavemetrics, Portland, OR). Q10 values were obtained from Q10 = 10^10 x m, where m is the slope of linear fits to normalized log(current) vs temperature relations (not shown) over temperature intervals ~ 20–34°C or 38 – 45°C ([Zhang et al., 2018])."}, "mouse TRPV3-6M": {"target": "T2, mouse TRPV3-6M (Mus musculus, UniProt Q8K424, A560T/F522S/H523E/L557M/Q580E/W521Y)", "T2 construct": "expressed in transfected cells; host or cells: Xenopus laevis oocytes", "T2 sequence (Q8K424 1-791 W521Y/F522S/H523E/L557M/A560T/Q580E)": "T1 sequence (Q8K424 1-791) with W521Y, F522S, H523E, L557M, A560T, Q580E", "assay_type": "cell-based", "details": "for channel activation (current response): RTx 100 nM, 2-APB 3 mM, room temperature, ±60 mV", "description": "as §1, §2"}},
  "note": "Substitutions are numbered along the chain they refer to.",
  "data": [
    {"smiles": "NCCOB(c1ccccc1)c1ccccc1", "note": "[2-APB, 2-aminoethoxydiphenyl borate]", "values": [
      {"measurement": "channel activation (current response)", "setting": "WT mouse TRPV3; 2-APB 3 mM, room temperature", "value": "robust responses"},
      {"measurement": "s (slope) of Hill fit, 2-APB concentration-response", "setting": "WT mouse TRPV3; -60 mV", "value": 2.63},
      {"measurement": "EC50", "setting": "WT mouse TRPV3; -60 mV, room temperature, Hill fit, read-out: apparent affinity (EC50) for activation by 2-APB", "value": "464 ± 12", "unit": "µM"},
      {"measurement": "channel activation (current response)", "setting": "mouse TRPV3-6M", "value": "robust responses"}
    ]},
    {"smiles": "C=C(C)[C@]12C[C@@H](C)[C@@]34O[C@](Cc5ccccc5)(O[C@@H]1[C@@H]3C=C(COC(=O)Cc1ccc(O)c(OC)c1)C[C@]1(O)C(=O)C(C)=C[C@@H]41)O2", "note": "[RTx, resiniferatoxin]", "values": [
      {"measurement": "channel activation by RTx after 2-APB pre-stimulation", "setting": "WT mouse TRPV3; RTx 100 nM after short stimulation with 2-APB (3 mM)", "value": "did not activate"},
      {"measurement": "channel activation by RTx together with heating", "setting": "WT mouse TRPV3; RTx 100 nM with heating", "value": "did not elicit any response"},
      {"measurement": "channel activation by RTx after 2-APB pre-stimulation", "setting": "mouse TRPV3-6M; RTx 100 nM after short stimulation with saturating 2-APB (3 mM)", "value": "robust activation"},
      {"measurement": "channel activation by RTx together with heating", "setting": "mouse TRPV3-6M; RTx 100 nM with short heating pulse, temperatures slightly above room temperature", "value": "prominent activation"},
      {"measurement": "channel activation (current response)", "setting": "mouse TRPV3-6M", "value": "insensitive"}
    ]}
  ]
}
